Measurements from patent US11878276B2, “Nanobiocatalyst and nanobiocatalytic membrane” (University of Vermont and State Agricultural College, priority 2017, dated 2024).

System: Gram positive and Gram negative bacteria
Test: minimum inhibitory concentration of bismuth
Assay type: cell-based
Description: In particular, in one embodiment, antimicrobial lipophilic bismuth dimercaptopropanol nanoparticles (BisBAL NPs) may be used. In one embodiment, the bismuth concentration on the membrane surface may be approximately 0.437 g/m^2. In one embodiment, the toxic range of Bi^+3 concentration (minimum inhibitory concentration) for Gram positive and Gram negative bacteria is 15-16 μM. […] In one embodiment, the bismuth nanoparticles are roughly spherical and are approximately 20 nm wide. […] In another embodiment, other antibacterial nanoparticles are also contemplated, such as, but not limited to Zinc Oxide (ZnO), Copper Oxide (CuO), Iron Oxide (Fe2O3), and Silver (Ag).

[Bi+3] [Bi^+3]
toxic range of Bi^+3 concentration (minimum inhibitory concentration): 15 to 16 µM
